Patent US8519007B2, “Use certain diterpene compounds in the treatment of androgen receptor-associated diseases” (Academia Sinica, priority 2008, dated 2013)

Key:
PC-3 cells [1] = assay: Western blot of caspases and PARP; assay type: cell-based, human; conditions: PC-3, 10 μM, 24 h
Description: (§1) During apoptosis, various caspases are activated which are involved in the cleavage and […] a range of cellular substrates, including […] the DNA repair enzyme PARP (Herceg Z et al., Mol Cell Biol 1999;10:5124-33; Okada H et al., Nat Rev Cancer 2004; 4:592-603). In the presence of 10 μM HDHS, PARP cleavage was observed, and at the same time caspase-3 and -7 were activated by proteolytic cleavage (FIG. 4B, lane 5). […] In contrast, activation of caspase-3 and -7 or cleavage of PARP were not detected in PC-3 cells treated with 10 μM HDHS for 24 h (FIG. 4B, lane 10). Tumor suppressor p53 is a control for the G1 checkpoint and cell apoptosis, and LNCaP cells express wild-type p53 (van Bokhoven A et al., Prostate 2003; 57:205-25).

LNCaP cells [2] = assay: Western blot of G1-associated cyclins, CDKs, CDK inhibitors and Rb phosphorylation; assay type: cell-based, human; conditions: 24 h
Excerpt: (§2) The molecular mechanisms for HDHS-induced G0-G1 cell cycle arrest were further assessed by the expression of the cyclins and CDKs that operate in the G1 phase in PCa cells (Malumbres M et al., Nat Rev Cancer 2001; 1:222-31; Massague J. Nature 2004; 432:298-306).

PC-3 cells [3] = assay: as above; assay type: cell-based, human; conditions: PC-3, compared with LNCaP
Excerpt: as §2

22Rv1 cells [4] = assay: MTT cell viability; assay type: cell-based, human; conditions: 22Rv1, concentrations above 10 μM, 48 h
Description: (§3) The effects of HDHS on cell viability in various PCa cell lines including androgen-dependent LNCaP, androgen-responsive 22Rv1 cells, and androgen-independent PC-3 cells were tested and compared with untransformed fibroblast NIH-3T3 cells. PCa or NIH-3T3 cells (1×10^4 cells) were seeded into 96-well microtiter plates with 10% FBS culture medium. After 24 h, cells were incubated in 10% FBS medium containing different concentrations of HDHS or equivalent amounts of vehicle alone as control for 48 h. Cell viability was then determined by MTT assay, which quantitatively measures the metabolic activity of living cells.

LNCaP cells [5] = assay: MTT cell viability; assay type: cell-based, human; conditions: concentrations above 10 μM, 48 h
Description: as §3

PC-3 cells [6] = assay: MTT cell viability; assay type: cell-based, human; conditions: PC-3, concentrations above 10 μM, 48 h, versus LNCaP and 22Rv1
Description: as §3

NIH-3T3 cells = assay: MTT cell viability; assay type: cell-based; conditions: NIH-3T3, concentrations above 10 μM, 48 h, versus LNCaP and 22Rv1
Description: as §3

22Rv1 cells [7] = assay: Colony-forming growth assay; assay type: cell-based; conditions: Homo sapiens, 288 h; 22Rv1, 12 days; read-out: IC50 (anti-proliferation potency), colony growth
Description: (§4) FIGS. 3A-C. HDHS affects growth of PCa cells. A, Cell viability of different cell lines treated with vehicle (Ctrl) or indicated concentrations of HDHS for 48 h. The absorbance of the control group was defined as 100%. B, Colony-forming growth of LNCaP and 22Rv1 cells (AR-dependent PCa cells) and PC-3 cells (AR-independent PCa cells) in 24-well multi-dishes with indicated treatments for 12 days. The results were presented as percentage of growth with respect to control treatment of the same cell line. C, Photographs of different PCa cell lines growing on culture plates with designated treatments for […].
(§5) The long-term effect of HDHS on the malignant growth of AR-dependent (22Rv1, and LNCaP) and AR-independent (PC-3) PCa cells was examined by colony-forming growth assay. […] The differential effect was also reflected in the morphology of treated cells.

LNCaP cells [8] = assay: Colony-forming growth assay; assay type: cell-based; conditions: Homo sapiens, 288 h, 12 days, read-out: IC50 (anti-proliferation potency), colony growth
Description: as §4, §5

PC-3 cells [9] = assay: Colony-forming growth assay; assay type: cell-based; conditions: Homo sapiens, 288 h; PC-3, 12 days; read-out: IC50 (anti-proliferation potency), colony growth
Description: as §4, §5

[10] = test system: PSA and AR expression in LNCaP cells; assay: Western blot of PSA and AR expression in DHT-treated LNCaP cells; assay type: cell-based, human; conditions: 10 nM DHT, 24 h
Excerpt: The AR suppressing activity of HDHS was also examined in LNCaP cells, another androgen-dependent PCa cell line. […] Expression of endogenous PSA in treated cells, as a measure of cellular response to androgen, and AR activity were detected by western blot with anti-PSA and anti-AR antibodies. Protein levels (relative to actin; listed below the first two blots) were quantitatively analyzed with Chemigenius (Biolabo). The blots shown in FIG. 2B are representative of three independent experiments.

22Rv1 cells [11] = assay: Morphology of treated cells; conditions: 22Rv1, 10 to 50 μM, 48 h
LNCaP cells [12] = assay: Western blot of caspases, PARP, p53 and Bcl-xL; assay type: cell-based, human; conditions: 10 μM
Description: as §1

PC-3 cells [13] = assay: Cell cycle distribution by propidium iodide flow cytometry; assay type: cell-based, human; conditions: 48 h
Description: The cell cycle of treated cells was examined by flow cytometry after cellular staining with propidium iodide. 5×10^5 cells were seeded into 6-well multidishes with 10% FBS culture medium for 48 h. […] Cells were trypsinized thereafter, washed twice with cold PBS, and centrifuged. The pellet was suspended in cold PBS and 1 mL of 70% ethanol at 4° C. overnight, washed twice with cold PBS, and digested with RNase (100 μg/mL final concentration) and stained with propidium iodide (10 μg/mL final concentration) for 30 min and analyzed by flow cytometry (EPICS XL-MCL, Beckman Coulter, Inc., Fullerton, Calif.).

PC-3 cells [14] = assay: Morphology of treated cells; conditions: PC-3, up to 50 μM

SMILES: CC(C)c1cc2c(cc1O)[C@@]1(C)CCCC(C)(C)C1=C(O)C2=O [Compound 2, 6,12-dihydroxyabieta-5,8,11,13-tetraen-7-one]
- activation of caspase-3 and -7 or cleavage of PARP (PC-3 cells [1]): not detected
- protein expression of CDK inhibitors p21 and p27 (LNCaP cells [2]; 10 μM): increased
- cyclins D1 and E protein (LNCaP cells [2]): concentration-dependent decrease
- phosphorylation of Rb (LNCaP cells [2]): markedly decreased
- protein levels of CDK4, CDK6, and CDK2 (LNCaP cells [2]): decreased
- changes in cyclins, CDKs, p21, p27 and Rb phosphorylation (PC-3 cells [3]): at a lower magnitude than in LNCaP cells
- cell viability (MTT) (22Rv1 cells [4]): strongly reduced cell viability
- cell viability (MTT) (LNCaP cells [5]): strongly reduced cell viability
- cell viability (MTT) (PC-3 cells [6]): far less pronounced
- cell viability (MTT) (NIH-3T3 cells): far less pronounced
- IC50 (22Rv1 cells [7]): 6.3 µM
- IC50 (LNCaP cells [8]): 7.5 µM
- IC50 (PC-3 cells [9]): 13.2 µM
- AR activation of PSA expression by DHT ([10]; 10 μM): completely abolished
- protein levels of AR ([10]; 10 μM): fell to basal level
- protein levels of AR ([10]; 2.5 or 5 μM): not significantly altered
- morphology of treated cells (22Rv1 cells [11]): cell rounding and surface blebbing
- PARP cleavage (LNCaP cells [12]): observed
- caspase-3 and -7 proteolytic cleavage (LNCaP cells [12]): activated
- decrease of anti-apoptotic regulator Bcl-xL level (LNCaP cells [12]; 24 h): ~50%
- increase in p53 (LNCaP cells [12]; 24 h): 3 fold
- G0-G1 phase cell population (PC-3 cells [13]; PC-3, 2.5 μM): 52.7 ± 2.0 %
- G2-M phase cell population (PC-3 cells [13]; PC-3, 2.5 μM): 24.9 ± 2.7 %
- S phase cell population (PC-3 cells [13]; PC-3, 2.5 μM): 19.2 ± 1.0 %
- Sub-G1 phase cell population (PC-3 cells [13]; PC-3, 2.5 μM): 2.3 ± 0.7 %
- G0-G1 phase cell population (PC-3 cells [13]; PC-3, 5 μM): 55.9 ± 2.9 %
- G2-M phase cell population (PC-3 cells [13]; PC-3, 5 μM): 19.5 ± 2.9 %
- S phase cell population (PC-3 cells [13]; PC-3, 5 μM): 18.8 ± 1.1 %
- Sub-G1 phase cell population (PC-3 cells [13]; PC-3, 5 μM): 2.8 ± 0.9 %
- G0-G1 phase cell population (PC-3 cells [13]; PC-3, 10 μM): 58.2 ± 2.8 %
- G2-M phase cell population (PC-3 cells [13]; PC-3, 10 μM): 19.2 ± 3.2 %
- S phase cell population (PC-3 cells [13]; PC-3, 10 μM): 18.0 ± 1.9 %
- Sub-G1 phase cell population (PC-3 cells [13]; PC-3, 10 μM): 2.1 ± 0.6 %
- morphology of treated cells (PC-3 cells [14]): only cell rounding
